# In patent US4914110A, “Quinoline derivatives, their preparation and therapeutic compositions containing the same” (Societe de Conseils de Recherches et d'Applications …, priority 1988, dated 1990):
# Columns and labels:
# [1] = tested on: Staphylococcus aureus ATCC 6538; experiment: bactericidal activity by serial dilution in Brain Heart Infusion Broth (MIC and MMC), S.a.; assay type: cell-based; conditions: 24 hours; for MIC: ATCC6538, 37° C., read-out: Minimal Inhibitory Concentration (MIC); for MBC: ATCC6538, sub-culture on Tryptone Soy Agar, 37° C., read-out: Minimal Microbiocidal Concentration (MMC)
# Method: (§1) (A) The bactericidal activity of the compounds of the invention has been determined on various microorganisms, as hereinafter described.
# (§2) Serial dilutions of the test and reference compounds are prepared in Brain Heart Infusion Broth (Oxoid CM225) in two-fold steps from 1000 μg/ml down to 0.5 μg/ml.
# (§3) The test organisms are cultured on Tryptone Soy Agar (TSA, Oxoid CM131) and checked for viability and purity. Standardized inocula are then ppepared by inoculating slopes of TSA and incubating at 37° C. for 24 hours. The resultant bacterial growth is then removed by the addition of sterile physiological saline and shaking with glass beads. The suspensions of organisms are then standardized to give 50% transmission at […] on an SP600 Spectrophotometer. Calibration curves show this to yield approximately 10^8 colony forming units per ml.
# (§4) 0.1 ml aliquots of these suspensions are then used to inoculate each of the prepared serial dilutions of the compounds in Brain Heart Infusion Broth.
# (§5) The sets of dilutions are incubated at 37° C. for 24 hours and then inspected for the presence or absence of growth as shown by turbidity of the medium. The lowest concentration showing no growth of the test organism is recorded as the Minimal Inhibitory Concentration (MIC) of the compound for that organism.
# (§6) Each of the tubes showing no growth are then sub-cultured onto plates of Tryptone Soy Agar and incubated at 37° C. for 24 hours. The plates are then inspected for the presence or absence of growth at the inoculation points. […] MIC and MMC are expressed in μg/ml.
# (§7) The results are presented in the following table, in comparison with those for two reference compounds, nitrofuroxazide and pipemidic acid. The abreviations used in the table have the following meanings:
# S.a. Staphylococcus aureus
# [2] = tested on: Streptococcus pyogenes NCTC 8198; experiment: bactericidal activity by serial dilution in Brain Heart Infusion Broth (MIC and MMC), S.p.; assay type: cell-based; conditions: 24 hours; for MIC: NCTC8198, 37° C., read-out: Minimal Inhibitory Concentration (MIC); for MBC: NCTC8198, sub-culture on Tryptone Soy Agar, 37° C., read-out: Minimal Microbiocidal Concentration (MMC)
# Method: as §1, §2, §3, §4, §5, §6, §7
# S.p. Streptococcus pyogenes
# [3] = tested on: Pseudomonas aeruginosa ATCC 9027; experiment: bactericidal activity by serial dilution in Brain Heart Infusion Broth (MIC and MMC), P.a.; assay type: cell-based; conditions: 24 hours; for MIC: ATCC9027, 37° C., read-out: Minimal Inhibitory Concentration (MIC); for MBC: ATCC9027, sub-culture on Tryptone Soy Agar, 37° C., read-out: Minimal Microbiocidal Concentration (MMC)
# Method: as §1, §2, §3, §4, §5, §6, §7
# P.a. Pseudomonas aeruginosa
# [4] = tested on: Escherichia coli NCTC 8196; experiment: bactericidal activity by serial dilution in Brain Heart Infusion Broth (MIC and MMC), E.c.; assay type: cell-based; conditions: 24 hours; for MIC: NCTC8196, 37° C., read-out: Minimal Inhibitory Concentration (MIC); for MBC: NCTC8196, sub-culture on Tryptone Soy Agar, 37° C., read-out: Minimal Microbiocidal Concentration (MMC)
# Method: as §1, §2, §3, §4, §5, §6
# (§8) The results are presented in the following table, in comparison with those for two reference compounds, nitrofuroxazide and pipemidic acid. The abreviations used in the table have the following meanings: […]
# [5] = tested on: Proteus mirabilis NCTC 8559; experiment: bactericidal activity by serial dilution in Brain Heart Infusion Broth (MIC and MMC), P.m.; assay type: cell-based; conditions: 24 hours; for MIC: NCTC8559, 37° C., read-out: Minimal Inhibitory Concentration (MIC); for MBC: NCTC8559, sub-culture on Tryptone Soy Agar, 37° C., read-out: Minimal Microbiocidal Concentration (MMC)
# Method: as §1, §2, §3, §4, §5, §6, §8
# [6] = tested on: Salmonella enteritidis NCTC 6676; experiment: bactericidal activity by serial dilution in Brain Heart Infusion Broth (MIC and MMC), S.e.; assay type: cell-based; conditions: Salmonella enterica, 37° C., 24 hours; for MIC: read-out: Minimal Inhibitory Concentration (MIC); for MBC: sub-culture on Tryptone Soy Agar, read-out: Minimal Microbiocidal Concentration (MMC)
# Method: as §1, §2, §3, §4, §5, §6, §7
# S.e. Salmonella enteritidis
# [7] = tested on: Shigella boydii NCTC 9328; experiment: bactericidal activity by serial dilution in Brain Heart Infusion Broth (MIC and MMC), S.b.; assay type: cell-based; conditions: 24 hours; for MIC: NCTC9328, 37° C., read-out: Minimal Inhibitory Concentration (MIC); for MBC: NCTC9328, sub-culture on Tryptone Soy Agar, 37° C., read-out: Minimal Microbiocidal Concentration (MMC)
# Method: as §1, §2, §3, §4, §5, §6, §7
# S.b. Shigella boydii NCTC 9328
# solubility in water = assay type: physicochemical
# [8] = solubility in dimethylsulfoxide; assay type: physicochemical
# [9] = tested on: Vibrio Cholerae, Vibrio parahemolyticus, Vibrio alginolyticus, Aeromonas hydrophila Sobria and Salmonella; experiment: bacteriostatic activity, preceding experiment (comparison within the series); assay type: cell-based; conditions: compared with the compounds of examples 1 to 5
# Method: (B) The bacteriostatic activity of the compounds of the invention has also been searched against microorganisms more particularly related with gastro-enteritis.
# This experiment was conducted in Mueller-Hinton gelose with tested compounds dissolved in dimethylsulfoxide (control dimethylsulfoxide was provided) at increasing concentrations from 0.01 to 100 μg. The strains used were Vibrio Cholerae (3 strains respectively from Europe, Africa and Conth-East-Asia), Vibrio parahemolyticus, Vibrio alginolyticus, Aeromonas hydrophila Sobria and Salmonella. Minimum inhibitory concentration was found for the 7 compounds of the invention, between 0.5 and 1 μg for the Salmonella strain and between 0.1 and 0.5 μg for the other strains, which denotes a strong bacteriostatic activity.
SMILES,MIC [1] [µg/mL],MBC [1] [µg/mL],MIC [2] [µg/mL],MBC [2] [µg/mL],MIC [3] [µg/mL],MBC [3] [µg/mL],MIC [4] [µg/mL],MBC [4] [µg/mL],MIC [5] [µg/mL],MBC [5] [µg/mL],MIC [6] [µg/mL],MBC [6] [µg/mL],MIC [7] [µg/mL],MBC [7] [µg/mL],solubility in water (solubility in water),solubility in dimethylsulfoxide [8],relative activity in preceding experiment [9]
O=C(O)c1cn(COCCO)c2c(F)cc(F)cc2c1=O [Example 3],4,8,2,4,8,16,4,8,32,32,32,32,8,8,insoluble,soluble,
O=C(O)c1cn(CC2CCCCC2)c2c(F)cc(F)cc2c1=O [Example 6],8,16,16,16,4,8,64,64,8,8,4,4,8,8,insoluble,insoluble,less active
"CCn1cc(C(=O)O)c(=O)c2cnc(N3CCNCC3)nc21 [Pip., Pipemidic acid, reference compound]",2,250,4,125,1,16,4,4,4,8,4,8,4,4,,,
O=C(O)c1cn(Cc2c(Cl)cccc2Cl)c2c(F)cc(F)cc2c1=O [Example 7],8,8,32,64,8,8,1,2,2,4,2,4,16,32,insoluble,insoluble,less active
"CCn1cc(C(=O)O)c(=O)c2cc(F)cc(F)c21 [Example 1, 1,4-dihydro-3-carboxy-6,8-difluoro-1-ethyl-4-oxo-quinoline]",32,32,16,32,32,64,8,8,1,2,2,4,1,1,insoluble,soluble,
O=C(O)c1cn(Cc2ccc([N+](=O)[O-])o2)c2c(F)cc(F)cc2c1=O [Example 5],16,64,8,32,2,2,64,64,16,32,125,125,32,32,insoluble,soluble,
O=C(O)c1cn(CCF)c2c(F)cc(F)cc2c1=O [Example 2],4,8,32,32,8,8,32,32,4,8,4,8,8,16,insoluble,insoluble,
O=C(O)c1cn(CC2CC2)c2c(F)cc(F)cc2c1=O [Example 4],64,64,4,4,8,16,64,64,1,2,2,4,32,32,insoluble,soluble,
"O=C(N/N=C/c1ccc([N+](=O)[O-])o1)c1ccc(O)cc1 [Nif., Nifuroxazide, reference compound]",8,8,1,1,500,500,4,4,500,500,500,500,8,8,,,
